# According to patent publication US20170242014A1, “METHODS FOR TREATING SOLID TUMORS AND THE USE OF BIOMARKERS AS A PREDICTOR OF CLINICAL SENSITIVITY TO IMMUNOMODULATORY THERAPIES” (CELGENE CORPORATON, priority 2014, published 2017):
# Entries after “also recorded” stand apart in the source; their conditions may differ. Peptide text beside a SMILES is read from it. * marks the point of attachment. Cbz = O=C(OCc1ccccc1)*
# How the values were obtained:
# ZFP91 [1] = test: ZFP91 protein level in Hep3B cells (western blot); format: cell-based, human; settings: for ZFP91 level (western blot): FIG. 6A upper panel; for effect on reduction of ZFP91 level in response to Compound A or Compound B: FIG. 6A lower panel
# Experimental: The change of ZFP91 level in response to Compound A or Compound B treatments was also evaluated in human hepatoma Hep3B cell lines. Hep3B cells were treated with Compound A or Compound B, and cells were harvested and treated in lysis buffer to generate cell lysate. Proteins from cell lysate were separated by electrophoresis gel and transferred to nitrocellulose membranes. Immunoblots were then probed with antibodies recognizing CRBN, ZFP91, and β-actin. Signals were detected with a Li-Cor Odyssey Imager. The results were shown in the upper panel of FIG. 6A. […] Thus, ZFP91 may be degraded in response treatment compounds regardless of growth response of the cells to the treatment compounds.
# Focus cells = test: Colony growth on control plates, 3D culture; format: cell-based; settings: FIG. 2B
# Experimental: (§1) Both HCC cells, Focus and JHH4 in 3D setting, were cultured continuously for 15 days treated with either DMSO or Compound A, or were first cultured for about 7 days prior to treatment with either DMSO or Compound A for 24 hours or 72 hours. Cells were harvested and proteins were prepared from the cells for proteomics analysis. The growth of the cells on control plates was also analyzed. In particular, cells were plated in media containing either DMSO or Compound A. Cells were cultured for certain time, and then were harvested onto filter plates. After the plates have dried, scintillation fluid was added to the plates and read on a Top-count reader.
# JHH4 cells = test: Colony growth on control plates, 3D culture; format: cell-based; settings: JHH4, 3D, FIG. 3B
# CRBN = CRBN protein level in HCC cells Focus and JHH4 (western blot / proteomic preparation); format: cell-based; settings: for level of CRBN (western blot): FIG. 4B; for level of CRBN protein: control plate and proteomic preparation
# Experimental: Both HCC cells, Focus and JHH4 in 3D setting, were cultured continuously for 15 days treated with either DMSO or Compound A, or were first cultured for about 7 days prior to treatment with either DMSO or Compound A for 24 hours or 72 hours. Cells were harvested and proteins were prepared from the cells for proteomics analysis. The growth of the cells on control plates was also analyzed. In particular, cells were plated in media containing either DMSO or Compound A. Cells were cultured for certain time, and then were harvested onto filter plates. After the plates have dried, scintillation fluid was added to the plates and read on a Top-count reader. HCC cells from both Focus and JHH4 cell lines in 2D setting treated with Compound A for 6 hours, 24 hours, and 72 hours, and JHH4 cells in 3D setting treated with Compound A for 15 days were also analyzed by western blot. Cells were harvested and were treated in 200 μl cold cell lysis buffer (1% Triton X-100 from Cell Signaling supplemented with protease inhibitors and phophatase inhibitors from Roche) to generate cell lysate. Proteins from cell lysate were separated by 4-12% Nupage gels (Invitrogen) and transferred to nitrocellulose membranes. Immunoblots were then probed with antibodies recognizing CRBN, ZFP91 (LSBio), P-TBK1, and β-actin (Li-Cor). Signals were detected with a Li-Cor Odyssey Imager. As shown, the level of ZFP91 reduced in response to treatment with Compound A for 6 hours, 24 hours, or 72 hours in both cell lines in 2D setting. […] The level of CRBN increased in response to treatment with Compound A for 6 hours, 24 hours, or 72 hours in both cell lines in 2D setting. […] ZFP91 degradation induced by various doses of Compound A for various time periods was also tested in both Focus and JHH4 cells, as shown in FIG. 4C.
# ZFP91 [2] = test: Immunostaining of ZFP91 in U87 xenograft tissue; format: in vivo; settings: FIG. 7B right panel
# Hep3B cells = test: Growth response of Hep3B cells to treatment compounds; format: cell-based, human; settings: FIG. 6B
# U87 tumor = test: U87 xenograft tumor growth; format: in vivo; settings: FIG. 7B left panel
# ZFP91 [3] = test: ZFP91 protein level in HCC cells Focus and JHH4 (western blot / proteomic preparation); format: cell-based; settings: for level of ZFP91 in cells treated with cycloheximide (CHX): 100 ug/ml CHX, FIG. 5B; for effect of compound on ZFP91 degradation after knocking down of CRBN: FIG. 5C
# [4] = tested on: HCC cell lines (excised xenograft tumors of HAK-1AJ and Focus); test: Proteomic screening (TMT) of HCC cell lines after Compound A treatment; format: cell-based
# Experimental: HCC cell lines (excised xenograft tumors of HAK-1AJ and Focus) were treated with either with DMSO, or Compound A for either once (single) or multiple times. Cells were harvested at 24 or 72 hours time points, and proteins were fractionated using a basic pH reverse gradient method. Fractionated samples were labeled using a Tandem Mass Tag (TMT) method. Relative abundance was calculated.
# ZFP91 [5] = test: ZFP91 protein level in HCC cells Focus and JHH4 (western blot / proteomic preparation); format: cell-based; settings: for level of ZFP91 protein: control plate and proteomic preparation, beta-actin control; for effect on ZFP91 degradation induced by Compound A: 10 μM for 1 hour, then 5 μM Compound A for 6 hours, FIG. 5A
# Experimental: as §1
# Focus cells were cultured for 18 days either continuously for 18 days in the medium containing DMSO, Compound A, or Compound B, or cultured for 7 days prior to treating with DMSO, Compound A, or Compound B for 11 days. Then cells were harvested and were treated in 200 μl cold cell lysis buffer (1% Triton X-100 from Cell Signaling supplemented with protease inhibitors and phophatase inhibitors from Roche) to generate cell lysate. Proteins from cell lysate were separated by 4-12% nupage gels (Invitrogen) and transferred to nitrocellulose membranes. Immunoblots were then probed with antibodies recognizing CRBN, ZFP91 (LSBio) and β-actin (Li-Cor). Signals were detected with a Li-Cor Odyssey Imager. As shown, the level of ZFP91 reduced in response to treatment with Compound A or Compound B.
# (§2) HCC cells from both Focus and JHH4 cell lines in 2D setting treated with Compound A for 6 hours, 24 hours, and 72 hours, and JHH4 cells in 3D setting treated with Compound A for 15 days were also analyzed by western blot. Cells were harvested and were treated in 200 μl cold cell lysis buffer (1% Triton X-100 from Cell Signaling supplemented with protease inhibitors and phophatase inhibitors from Roche) to generate cell lysate. Proteins from cell lysate were separated by 4-12% Nupage gels (Invitrogen) and transferred to nitrocellulose membranes. Immunoblots were then probed with antibodies recognizing CRBN, ZFP91 (LSBio), P-TBK1, and β-actin (Li-Cor). Signals were detected with a Li-Cor Odyssey Imager. As shown, the level of ZFP91 reduced in response to treatment with Compound A for 6 hours, 24 hours, or 72 hours in both cell lines in 2D setting. […] The level of CRBN increased in response to treatment with Compound A for 6 hours, 24 hours, or 72 hours in both cell lines in 2D setting. […] ZFP91 degradation induced by various doses of Compound A for various time periods was also tested in both Focus and JHH4 cells, as shown in FIG. 4C.
# HCC cells from both Focus and JHH4 cell lines in 2D setting were first treated with 10 μM MG132 or MLN4924 for 1 hour, and then were treated with 5 μM DMSO or 5 μM Compound A for 6 hours. Cells were harvested and were treated in cell lysis buffer to generate cell lysate. Proteins from cell lysate were separated by gel electrophoresis and transferred to nitrocellulose membranes. Immunoblots were then probed with antibodies recognizing CRBN, ZFP91 (LSBio), and β-actin (Li-Cor). The results were shown in FIG. 5A, and as shown, both 10 μM MG132 or MLN4924 inhibited ZFP91 degradation. MG132 activates c-Jun N-terminal kinase (JNK1), which initiates apoptosis. […] MLN4924 is a NAE1 inhibitor that blocks the activity of Cullin Ring Ligases (CRLs), such as CRL4CRBN.
# P-TBK1 = P-TBK1 level by western blot in HCC cells; format: cell-based; settings: 3D setting; Compound A treatment
# Experimental: as §2
# ZFP91 [6] = test: ZFP91 protein level in glioblastoma cell lines U87 and SNB19 (western blot); format: cell-based, human; settings: FIG. 7A
# Experimental: The change of ZFP91 level in response to treatment compounds was evaluated in other solid tumor cell lines, e.g., giloblastoma (GBM) cell lines. […] Proteins from cell lysate were separated by electrophoresis gel and transferred to nitrocellulose membranes. Immunoblots were then probed with antibodies recognizing ZFP91 and β-actin. Signals were detected with a Li-Cor Odyssey Imager.
# NF-κB activation = settings: read-out: IC50 of inhibition of NF-κB activation; cited from earlier work
# [7] = proteomic screening vs DMSO, harvested at 24 or 72 hours
# [8] = Focus cells, 18 days continuous or 7 days culture then 11 days treatment, FIG. 4A
structure (smiles),measurement,setting,value
"Cc1nc2cccc(N)c2c(=O)n1C1CCC(=O)NC1=O (centres unmarked) [Compound A, 3-(5-amino-2-methyl-4-oxo-4H-quinazolin-3-yl)-piperidine-2,6-dione]",ZFP91 level (western blot),ZFP91 [1],down-regulated
same,colony number,Focus cells,reduced
same,total colony area,Focus cells,reduced
same,colony number,JHH4 cells,reduced
same,total colony area,JHH4 cells,reduced
same,level of CRBN (western blot),"CRBN; Focus, 2D setting, 6 hours, 24 hours, or 72 hours",increased
same,level of CRBN protein,"CRBN; Focus, 3D, FIG. 2A",increased
same,level of CRBN (western blot),"CRBN; JHH4, 2D setting, 6 hours, 24 hours, or 72 hours",increased
same,level of CRBN (western blot),"CRBN; JHH4, 3D setting, 15 days",increased
same,level of CRBN protein,"CRBN; JHH4, 3D, FIG. 3A",increased
same,ZFP91 in U87 xenograft tissue (immunostaining),ZFP91 [2],degraded
same,sensitivity of Hep3B cells (growth response),Hep3B cells,not
same,U87 tumor growth,U87 tumor; 3 mg/kg qd,significantly inhibits
same,U87 tumor growth,U87 tumor; 30 mg/kg qd,significantly inhibits
same,level of ZFP91 in cells treated with cycloheximide (CHX),ZFP91 [3]; Focus,decreased
same,effect of compound on ZFP91 degradation after knocking down of CRBN,"ZFP91 [3]; Focus, CRBN knock-down",reversed
same,level of ZFP91 in cells treated with cycloheximide (CHX),ZFP91 [3]; JHH4,decreased
same,effect of compound on ZFP91 degradation after knocking down of CRBN,"ZFP91 [3]; JHH4, CRBN knock-down",reversed
same,proteins commonly differentially abundant in both Focus and HAK-1AJ cell lines,"[4]; 24 hours after treatment, FIG. 1C","WIBG, KAT1, Nestin, PARP4, and MVP"
same,proteins downregulated in response to Compound A treatment,[4]; [7],"MVP, PARP4, ZFP91, and ZNF198"
same,proteins upregulated in response to Compound A treatment,[4]; [7],"Nestin, KAT1/CCBL1, and WIBG"
same,level of ZFP91 (western blot),ZFP91 [5]; [8],reduced
same,level of ZFP91 (western blot),"ZFP91 [5]; Focus, 2D setting, 6 hours, 24 hours, or 72 hours, FIG. 4B",reduced
same,level of ZFP91 protein,"ZFP91 [5]; Focus, 3D, FIG. 2A",reduced
same,level of ZFP91 (western blot),"ZFP91 [5]; JHH4, 2D setting, 6 hours, 24 hours, or 72 hours, FIG. 4B",reduced
same,level of ZFP91 (western blot),"ZFP91 [5]; JHH4, 3D setting, 15 days, FIG. 4B",reduced
same,level of ZFP91 protein,"ZFP91 [5]; JHH4, 3D, FIG. 3A",reduced
same,P-TBK1 level (western blot),P-TBK1,upregulated
same,ZFP91 level (western blot),ZFP91 [6]; SNB19 cells,down-regulated
same,ZFP91 level (western blot),ZFP91 [6]; U87 cells,down-regulated
"O=C1CCC(N2Cc3c(OCc4ccc(CN5CCOCC5)cc4)cccc3C2=O)C(=O)N1 (centres unmarked) [Compound B, 3-[4-(4-Morpholin-4-ylmethyl-benzyloxy)-1-oxo-1,3-dihydro-isoindol-2-yl]-piperidine-2,6-dione]",ZFP91 level (western blot),ZFP91 [1],down-regulated
same,sensitivity of Hep3B cells (growth response),Hep3B cells,sensitive
same,effect of compound on ZFP91 protein level after knocking down of CRBN,"ZFP91 [3]; CRBN knock-down, cell line not stated, FIG. 5D",reversed
same,level of ZFP91 (western blot),ZFP91 [5]; [8],reduced
"CC(C)C[C@@H](C=O)NC(=O)[C@H](CC(C)C)NC(=O)[C@H](CC(C)C)NC(=O)OCc1ccccc1 [MG132, reference compound] (Cbz-Leu-Leu-Leu-aldehyde)",effect on reduction of ZFP91 level in response to Compound A or Compound B,ZFP91 [1],blocked
same,IC50,NF-κB activation,3000 nM
same,effect on ZFP91 degradation induced by Compound A,"ZFP91 [5]; Focus, 2D",block; also recorded: inhibited
same,effect on ZFP91 degradation induced by Compound A,"ZFP91 [5]; JHH4, 2D",block; also recorded: inhibited
same,effect on reduction of ZFP91 level in response to treatment compounds,ZFP91 [6]; SNB19 cells,blocked
same,effect on reduction of ZFP91 level in response to treatment compounds,ZFP91 [6]; U87 cells,blocked
"NS(=O)(=O)OC[C@@H]1C[C@@H](n2ccc3c(N[C@H]4CCc5ccccc54)ncnc32)C[C@@H]1O [MLN4924, reference compound]",effect on reduction of ZFP91 level in response to Compound A or Compound B,ZFP91 [1],blocked
same,effect on ZFP91 degradation induced by Compound A,"ZFP91 [3]; JHH4, 2D, 10 μM for 1 hour, then 5 μM Compound A for 6 hours, FIG. 5A, listed as MLN",block
same,effect on ZFP91 degradation induced by Compound A,"ZFP91 [5]; Focus, 2D",inhibited
same,effect on ZFP91 degradation induced by Compound A,"ZFP91 [5]; Focus, 2D, listed as MLN",block
same,effect on ZFP91 degradation induced by Compound A,"ZFP91 [5]; JHH4, 2D",inhibited
same,effect on reduction of ZFP91 level in response to treatment compounds,ZFP91 [6]; SNB19 cells,blocked
same,effect on reduction of ZFP91 level in response to treatment compounds,ZFP91 [6]; U87 cells,blocked
